Assay results published in patent publication US20130225406A1 (priority 2010, published 2013).

System: Trioza erytreae
Type: in vivo

CC1(S(=O)(=O)[O-])CC(=O)c2ccccc2C1=O.[Na+] (centres unmarked) [MSB, menadione sodium bisulphite] was tested, and the “trees that showed leaves with the typical symptoms of the Trioza erytreae attack” value (Plot A 2000 trees, Plot B 300 trees, Plot C 100 trees, end of the summer of 2010) was “None” and the “control of the Trioza erytreae attacks” value (citrus trees, foliar treatment once a month with 80 ppm of MSB in aqueous solution from February 2010, assessed at the end of the summer of 2010) was 100%.
